# Results taken from US6777412B2 (priority 1990, dated 2004).
# Read-outs that look alike come from different tables or passages of the source. Marks after values point to notes of the source that are not given here.
# Assays:
# Assay type in all cases: in vivo
# [1] = system: Erysiphe graminis tritici; test: Foliar fungal disease test on plants: Erysiphe graminis tritici (Egt)
# Procedure: (§1) The compounds were tested against a variety of foliar fungal diseases of plants. The technique employed was as follows.
# (§2) The plants were grown in John Innes Potting Compost (No.1 or 2) in 4 cm diameter minipots. The test compounds were formulated either by bead milling with aqueous Dispersol T or as a solution in acetone or acetone/ethanol which was diluted to the required concentration immediately before use. For the foliage diseases, the formulations (100 ppm active ingredient except where otherwise indicated) were sprayed onto the foliage and applied to the roots of the plants in the soil. The sprays were applied to maximum retention and the root drenches to a final concentration equivalent to approximately 40 ppm a.i. in dry soil. Tween 20, to give a final concentration of 0.05%, was added when the sprays were applied to cereals.
# (§3) For most of the tests the compound was applied to the soil (roots) and to the foliage (by spraying) one or two days before the plant was inoculated with the disease. An exception was the test on Erysiphe graminis in which the plants were inoculated 24 hours before treatment. Foliar pathogens were applied by spray as spore suspensions onto the leaves of test plants. After inoculation, the plants were put into an appropriate environment to allow infection to proceed and then incubated until the disease was ready for assessment. The period between inoculation and assessment varied from four to fourteen days according to the disease and environment.
# (§4) The disease control vas recorded by the following grading:
# (§5) 3=trace-5% of disease on untreated plants
# (§6) 2=6-25% of disease on untreated plants
# (§7) 1=26-59% of disease on untreated plants
# (§8) 0=60-100% of disease on untreated plants
# Egt Erysiphe graminis tritici
# Plasmopara viticola = test: Foliar fungal disease test on plants: Plasmopara viticola (Pv)
# Procedure: as §1, §2, §3, §4, §5, §6, §7, §8
# Septoria nodorum = test: Foliar fungal disease test on plants: Septoria nodorum (Sn)
# Procedure: as §1, §2, §3, §4, §5, §6, §7, §8
# Venturia inaequalis = test: Foliar fungal disease test on plants: Venturia inaequalis (Vi)
# Procedure: as §1, §2, §3, §4, §5, §6, §7, §8
# Pyricularia oryzae = system: Pyricularia oryzae
# [2] = system: Phytophthora infestans lycopersici
# Puccinia recondita = test: Foliar fungal disease test on plants: Puccinia recondita (Pr)
# Procedure: as §1, §2, §3, §4, §5, §6, §7, §8
# [3] = 100 ppm active ingredient foliar spray plus root drench (approx. 40 ppm a.i. in dry soil), plants inoculated 24 hours before treatment
# [4] = 100 ppm active ingredient foliar spray plus root drench (approx. 40 ppm a.i. in dry soil), one or two days before inoculation
SMILES,"disease control grading, Egt (Erysiphe graminis tritici) [1, 3]","disease control grading, Pv (Plasmopara viticola) (Plasmopara viticola; [4])","disease control grading, Sn (Septoria nodorum) (Septoria nodorum; [4])","disease control grading, Vi (Venturia inaegualis) (Venturia inaequalis; [4])","disease control grading, Po (Pyricularia oryzae) (Pyricularia oryzae; [4])","disease control grading, Pil (Phytophthora infestans lycopersici) [2, 4]","disease control grading, Pr (Puccinia recondita) (Puccinia recondita; [4])","disease control grading, Egt (Erysiphe graminis tritici) ([1]; 10 ppm foliar application only)","disease control grading, Pv (Plasmopara viticola) (Plasmopara viticola; 10 ppm foliar application only)","disease control grading, Sn (Septoria nodorum) (Septoria nodorum; 10 ppm foliar application only)","disease control grading, Vi (Venturia inaegualis) (Venturia inaequalis; 10 ppm foliar application only)","disease control grading, Po (Pyricularia oryzae) (Pyricularia oryzae; 10 ppm foliar application only)","disease control grading, Pil (Phytophthora infestans lycopersici) ([2]; 10 ppm foliar application only)","disease control grading, Pr (Puccinia recondita) (Puccinia recondita; 10 ppm foliar application only)","disease control grading, Pr (Puccinia recondita) (Puccinia recondita; 100 ppm foliar application only)"
CO/C=C(/C(=O)OC)c1ccccc1Oc1cc(Cc2ccccc2)ncn1 [9 of Table I],4 (4=no disease),4 (4=no disease),4 (4=no disease),4 (4=no disease),4 (4=no disease),4 (4=no disease),0 (0=60-100% of disease on untreated plants),,,,,,,,
CO/C=C(/C(=O)OC)c1ccccc1Oc1cc(OCc2ccccn2)ncn1 [222 of Table I],4 (4=no disease),4 (4=no disease),3 (3=trace-5% of disease on untreated plants),4 (4=no disease),4 (4=no disease),0 (0=60-100% of disease on untreated plants),4 (4=no disease),,,,,,,,
CO/C=C(/C(=O)OC)c1ccccc1Oc1cc(OCc2cccnc2)ncn1 [229 of Table I],4 (4=no disease),4 (4=no disease),4 (4=no disease),4 (4=no disease),4 (4=no disease),3 (3=trace-5% of disease on untreated plants),4 (4=no disease),,,,,,,,
CO/C=C(/C(=O)OC)c1ccccc1Oc1cc(OCc2ccncc2)ncn1 [236 of Table I],3 (3=trace-5% of disease on untreated plants),4 (4=no disease),3 (3=trace-5% of disease on untreated plants),4 (4=no disease),2 (2=6-25% of disease on untreated plants),4 (4=no disease),4 (4=no disease),,,,,,,,
CO/C=C(/C(=O)OC)c1ccccc1Oc1cc(OCc2cccnn2)ncn1 [271 of Table I],3 (3=trace-5% of disease on untreated plants),0 (0=60-100% of disease on untreated plants),2 (2=6-25% of disease on untreated plants),0 (0=60-100% of disease on untreated plants),2 (2=6-25% of disease on untreated plants),2 (2=6-25% of disease on untreated plants),4 (4=no disease),,,,,,,,
CO/C=C(/C(=O)OC)c1ccccc1Oc1cc(OCCOc2c(F)cccc2C#N)ncn1 [397 of Table I],4 (4=no disease),4 (4=no disease),3 (3=trace-5% of disease on untreated plants),4 (4=no disease),4 (4=no disease),3 (3=trace-5% of disease on untreated plants),4 (4=no disease),,,,,,,,
CO/C=C(/C(=O)OC)c1ccccc1Oc1cc(-c2sc(-c3ccccc3O)nc2C)ncn1 [399 of Table I],,,,,,,,0^a (0=60-100% of disease on untreated plants),4^a (4=no disease),0^a (0=60-100% of disease on untreated plants),3^a (3=trace-5% of disease on untreated plants),0^a (0=60-100% of disease on untreated plants),0^a (0=60-100% of disease on untreated plants),0^a (0=60-100% of disease on untreated plants),
CO/C=C(/C(=O)OC)c1ccccc1Oc1cc(-c2c(N)oc3ccccc23)ncn1 [400 of Table I],4 (4=no disease),4 (4=no disease),4 (4=no disease),4 (4=no disease),0 (0=60-100% of disease on untreated plants),4 (4=no disease),4 (4=no disease),,,,,,,,
CCOc1ccccc1Nc1cc(Oc2ccccc2/C(=C\OC)C(=O)OC)ncn1 [401 of Table I],4 (4=no disease),4 (4=no disease),4 (4=no disease),4 (4=no disease),0 (0=60-100% of disease on untreated plants),3 (3=trace-5% of disease on untreated plants),4 (4=no disease),,,,,,,,
CCCCOc1ccccc1Nc1cc(Oc2ccccc2/C(=C\OC)C(=O)OC)ncn1 [402 of Table I],4 (4=no disease),4 (4=no disease),4 (4=no disease),4 (4=no disease),0 (0=60-100% of disease on untreated plants),3 (3=trace-5% of disease on untreated plants),4 (4=no disease),,,,,,,,
CO/C=C(/C(=O)OC)c1ccccc1Oc1cc(O/N=C(\C)c2ccccc2)ncn1 [403 of Table I],,,,,,,,0^a (0=60-100% of disease on untreated plants),4^a (4=no disease),0^a (0=60-100% of disease on untreated plants),4^a (4=no disease),0^a (0=60-100% of disease on untreated plants),1^a (1=26-59% of disease on untreated plants),,4^b (4=no disease)
CO/C=C(/C(=O)OC)c1ccccc1Oc1cc(O/N=C(\C)c2cnccn2)ncn1 [404 of Table I],4 (4=no disease),4 (4=no disease),3 (3=trace-5% of disease on untreated plants),4 (4=no disease),3 (3=trace-5% of disease on untreated plants),1 (1=26-59% of disease on untreated plants),4 (4=no disease),,,,,,,,
CO/C=C(/C(=O)OC)c1ccccc1Oc1cc(OCc2ccc(F)cc2)ncn1 [405 of Table I],4 (4=no disease),4 (4=no disease),0 (0=60-100% of disease on untreated plants),4 (4=no disease),4 (4=no disease),4 (4=no disease),4 (4=no disease),,,,,,,,
